# Laboratory results reported in ChEMBL document CHEMBL1201862, “PubChem BioAssay data set” (2004).
# Several values for one entry are separate records, joined by “and”; a condition that tells them apart may be missing. Equal entries are not always repeated.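 Cultured in 96-well plates, cells were exposed to test compound for 48 hours across five concentrations. Abbreviation: GI50, concentration required for 50% inhibition of growth.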 Activity calls are given as the source filed them. No stated cut-off is given here; in the data, active = GI50 up to about 1.1 µM and inactive = higher.
# How the values were obtained:
# Experiment in all cases: DTP human tumour cell line panel, 48 h
# A498 = tested on: A498
# A549 = tested on: A549
# ACHN = tested on: ACHN
# BT-549 = tested on: BT-549
# COLO 205 = tested on: COLO 205
# DU-145 = tested on: DU-145
# EKVX = tested on: EKVX
# HCT-15 = tested on: HCT-15
# IGROV-1 = tested on: IGROV-1
# M14 = tested on: M14
# MDA-MB-231 = tested on: MDA-MB-231
# MDA-MB-435 = tested on: MDA-MB-435
# MDA-N = tested on: MDA-N
# Malme-3M = tested on: Malme-3M
# NCI-H226 = tested on: NCI-H226
# NCI-H23 = tested on: NCI-H23
# NCI-H460 = tested on: NCI-H460
# NCI-H522 = tested on: NCI-H522
# NCI/ADR-RES = tested on: NCI/ADR-RES
# OVCAR-4 = tested on: OVCAR-4
# OVCAR-5 = tested on: OVCAR-5
# OVCAR-8 = tested on: OVCAR-8
# SK-MEL-28 = tested on: SK-MEL-28
# SK-MEL-5 = tested on: SK-MEL-5
# SN12C = tested on: SN12C
# TK-10 = tested on: TK-10
# UACC-257 = tested on: UACC-257
# UO-31 = tested on: UO-31
# 786-0 = tested on: 786-0
# CAKI-1 = tested on: CAKI-1
# HCC 2998 = tested on: HCC 2998
# HCT-116 = tested on: HCT-116
# HOP-62 = tested on: HOP-62
# HOP-92 = tested on: HOP-92
# HT-29 = tested on: HT-29
# K562 = tested on: K562
# KM12 = tested on: KM12
# MCF7 = tested on: MCF7
# MOLT-4 = tested on: MOLT-4
# PC-3 = tested on: PC-3
# RPMI-8226 = tested on: RPMI-8226
# SF-295 = tested on: SF-295
# SK-MEL-2 = tested on: SK-MEL-2
# SK-OV-3 = tested on: SK-OV-3
# SNB-19 = tested on: SNB-19
# SNB-75 = tested on: SNB-75
# SW-620 = tested on: SW-620
# U-251 = tested on: U-251
# UACC-62 = tested on: UACC-62
# CCRF-CEM = tested on: CCRF-CEM
# HL-60 = tested on: HL-60
# Hs-578T = tested on: Hs-578T
# LOX IMVI = tested on: LOX IMVI
# OVCAR-3 = tested on: OVCAR-3
# RXF 393 = tested on: RXF 393
# SF-268 = tested on: SF-268
# SF-539 = tested on: SF-539
# SR = tested on: SR
# T47D = tested on: T47D
structure (smiles),measurement,setting,value
CC(=O)OCC1OC(n2c3c(cc(C#N)c2=S)CCCC3)C(OC(C)=O)C(OC(C)=O)C1OC(C)=O (stereo not given),GI50,A498,> 100 µM (inactive)
same,GI50,A549,> 91.4 µM (inactive)
same,GI50,ACHN,> 64.4 µM (inactive)
same,GI50,BT-549,> 100 µM (inactive)
same,GI50,COLO 205,> 100 µM (inactive)
same,GI50,DU-145,> 100 µM (inactive)
same,GI50,EKVX,70 µM (inactive)
same,GI50,HCT-15,> 100 µM
same,GI50,IGROV-1,57.8 µM (inactive)
same,GI50,M14,> 100 µM (inactive)
same,GI50,MDA-MB-231,> 100 µM (inactive)
same,GI50,MDA-MB-435,> 100 µM (inactive)
same,GI50,MDA-N,> 100 µM (inactive)
same,GI50,Malme-3M,> 100 µM (inactive)
same,GI50,NCI-H226,> 100 µM (inactive) and > 80 µM (inactive)
same,GI50,NCI-H23,> 100 µM (inactive) and 62.5 µM (inactive)
same,GI50,NCI-H460,> 100 µM (inactive) and 50.9 µM (inactive)
same,GI50,NCI-H522,42.8 µM (inactive) and 40.8 µM (inactive)
same,GI50,NCI/ADR-RES,> 74.1 µM (inactive)
same,GI50,OVCAR-4,> 100 µM (inactive)
same,GI50,OVCAR-5,> 100 µM (inactive)
same,GI50,OVCAR-8,> 60.5 µM (inactive)
same,GI50,SK-MEL-28,> 100 µM (inactive)
same,GI50,SK-MEL-5,> 76.4 µM (inactive)
same,GI50,SN12C,> 100 µM (inactive)
same,GI50,TK-10,> 100 µM (inactive)
same,GI50,UACC-257,> 100 µM (inactive)
same,GI50,UO-31,> 100 µM (inactive)
Clc1ccc(Nc2nnc(CCCCCCCCc3nnc(Nc4ccc(Cl)cc4)o3)o2)cc1,GI50,786-0,24.5 µM (inactive)
same,GI50,A498,37.1 µM (inactive)
same,GI50,A549,28.1 µM (inactive)
same,GI50,ACHN,38.8 µM (inactive)
same,GI50,BT-549,31.9 µM (inactive)
same,GI50,CAKI-1,38.3 µM (inactive)
same,GI50,COLO 205,39.9 µM (inactive)
same,GI50,DU-145,25.5 µM (inactive)
same,GI50,EKVX,39 µM (inactive)
same,GI50,HCC 2998,36.4 µM (inactive)
same,GI50,HCT-116,17.3 µM (inactive)
same,GI50,HCT-15,32.6 µM
same,GI50,HOP-62,37.9 µM (inactive)
same,GI50,HOP-92,23.8 µM (inactive)
same,GI50,HT-29,32 µM (inactive)
same,GI50,IGROV-1,8 µM (inactive)
same,GI50,K562,7.35 µM (inactive)
same,GI50,KM12,23.4 µM (inactive)
same,GI50,M14,36 µM (inactive)
same,GI50,MCF7,39 µM (inactive)
same,GI50,MDA-MB-231,44.2 µM (inactive)
same,GI50,MDA-MB-435,42.7 µM (inactive)
same,GI50,MDA-N,33.3 µM (inactive)
same,GI50,MOLT-4,10.9 µM (inactive)
same,GI50,Malme-3M,11 µM (inactive)
same,GI50,NCI-H226,46 µM (inactive)
same,GI50,NCI-H23,27.6 µM (inactive)
same,GI50,NCI-H460,33.9 µM (inactive)
same,GI50,NCI-H522,21.5 µM (inactive)
same,GI50,NCI/ADR-RES,36 µM (inactive)
same,GI50,OVCAR-4,51.6 µM (inactive)
same,GI50,OVCAR-5,23.7 µM (inactive)
same,GI50,PC-3,38.1 µM (inactive)
same,GI50,RPMI-8226,21.6 µM (inactive)
same,GI50,SF-295,35.8 µM (inactive)
same,GI50,SK-MEL-28,48.6 µM (inactive)
same,GI50,SK-MEL-2,50.8 µM (inactive)
same,GI50,SK-MEL-5,23.1 µM (inactive)
same,GI50,SK-OV-3,35.7 µM (inactive)
same,GI50,SN12C,45.7 µM (inactive)
same,GI50,SNB-19,26.3 µM (inactive)
same,GI50,SNB-75,82.2 µM (inactive)
same,GI50,SW-620,48.5 µM (inactive)
same,GI50,TK-10,55.8 µM (inactive)
same,GI50,U-251,38.3 µM (inactive)
same,GI50,UACC-257,37.4 µM (inactive)
same,GI50,UACC-62,21.7 µM (inactive)
same,GI50,UO-31,36.8 µM (inactive)
O=C(CC(C(=O)c1ccco1)c1ccsc1)c1ccco1 (stereo not given),GI50,786-0,> 100 µM (inactive)
same,GI50,A498,> 100 µM (inactive)
same,GI50,A549,28.8 µM (inactive)
same,GI50,ACHN,> 100 µM (inactive)
same,GI50,CAKI-1,> 100 µM (inactive)
same,GI50,CCRF-CEM,> 100 µM (inactive)
same,GI50,COLO 205,> 100 µM (inactive)
same,GI50,DU-145,> 100 µM (inactive)
same,GI50,EKVX,> 100 µM (inactive)
same,GI50,HCC 2998,> 100 µM (inactive)
same,GI50,HCT-116,> 100 µM (inactive)
same,GI50,HCT-15,> 100 µM
same,GI50,HL-60,89.7 µM (inactive)
same,GI50,HOP-62,> 100 µM (inactive)
same,GI50,HOP-92,> 100 µM (inactive)
same,GI50,HT-29,> 100 µM (inactive)
same,GI50,Hs-578T,> 100 µM (inactive)
same,GI50,IGROV-1,> 100 µM (inactive)
same,GI50,K562,78 µM (inactive)
same,GI50,KM12,> 100 µM (inactive)
same,GI50,LOX IMVI,> 100 µM (inactive)
same,GI50,M14,> 100 µM (inactive)
same,GI50,MCF7,> 100 µM (inactive)
same,GI50,MDA-MB-231,56.8 µM (inactive)
same,GI50,MDA-MB-435,> 100 µM (inactive)
same,GI50,MDA-N,> 100 µM (inactive)
same,GI50,MOLT-4,37.4 µM (inactive)
same,GI50,NCI-H226,> 100 µM (inactive)
same,GI50,NCI-H23,> 100 µM (inactive)
same,GI50,NCI-H460,71.1 µM (inactive)
same,GI50,NCI-H522,76.9 µM (inactive)
same,GI50,NCI/ADR-RES,38.6 µM (inactive)
same,GI50,OVCAR-3,91.2 µM (inactive)
same,GI50,OVCAR-4,75.2 µM (inactive)
same,GI50,OVCAR-5,> 100 µM (inactive)
same,GI50,OVCAR-8,> 100 µM (inactive)
same,GI50,RPMI-8226,> 100 µM (inactive)
same,GI50,RXF 393,48.9 µM (inactive)
same,GI50,SF-268,> 100 µM (inactive)
same,GI50,SF-295,> 100 µM (inactive)
same,GI50,SF-539,> 100 µM (inactive)
same,GI50,SK-MEL-28,> 100 µM (inactive)
same,GI50,SK-MEL-5,> 100 µM (inactive)
same,GI50,SK-OV-3,> 100 µM (inactive)
same,GI50,SN12C,> 100 µM (inactive)
same,GI50,SNB-75,47 µM (inactive)
same,GI50,SR,67.8 µM (inactive)
same,GI50,SW-620,> 100 µM (inactive)
same,GI50,T47D,17.3 µM (inactive)
same,GI50,TK-10,> 100 µM (inactive)
same,GI50,U-251,> 100 µM (inactive)
same,GI50,UACC-257,> 100 µM (inactive)
same,GI50,UACC-62,90.4 µM (inactive)
same,GI50,UO-31,58.9 µM (inactive)
